Our source for the melting point values is patent US6448260B2, “Endothelin receptor antagonists” (SmithKline Beecham Corporation, priority 1991, dated 2002).

The structures appear in SMILES notation.

Broadly, the melting point is the temperature, or range, at which the solid turns liquid. As for `COc1ccc([C@@H]2c3cc(O)ccc3[C@H](c3cc4c(cc3OC)OCO4)[C@H]2C(=O)O)cc1` (racemic) [Example 82, (1RS, 2SR, 3RS)-5-Hydroxy-3-(4-methoxyphenyl)-1-(2-methoxy-4,5-methylenedioxyphenyl)indane-2-carboxylic acid], the melting point is 236 to 239 °C.
Next, `O=C(O)[C@H]1[C@H](c2ccc(F)cc2)c2ccccc2[C@@H]1c1ccc2c(c1)OCO2` (racemic) [Example 4, (1RS, 2SR, 3SR)-1-(4-Fluorophenyl)-3-(3,4-methylenedioxyphenyl)indane-2-carboxylic acid]: 146 to 149 °C; `CCCOc1ccc2c(c1)[C@@H](c1ccc(OC)cc1OCC(=O)O)[C@@H](C(=O)O)[C@H]2c1cc2c(cc1OC)OCO2` (racemic) [Example 30, (1RS, 2SR, 3SR)-3-(2-Carboxymethoxy-4-methoxyphenyl)-1-(2-methoxy-4,5-methylenedioxyphenyl)-5-(prop-1-yloxy)-indane-2-carboxylic acid]: 188 to 190 °C.
Next, `O=C(O)[C@H]1[C@H](c2ccc3c(c2)OCO3)c2ccc(OCc3ccccc3)cc2[C@@H]1c1ccc2c(c1)OCO2` (racemic) [Example 116, (1RS, 2SR, 3SR)-5-Benzyloxy-1,3-bis(3,4-methylenedioxyphenyl)indane-2 carboxylic acid]: 191 to 193 °C.
Next, `O=C(O)[C@H]1[C@H](c2ccc(O)cc2)c2ccccc2[C@@H]1c1ccc2c(c1)OCO2` (racemic) [Example 25, (1RS, 2SR, 3SR)-1-(4-Hydroxyphenyl)-3-(3,4-methylenedioxyphenyl)indane-2-carboxylic acid]: 94 to 96 °C; `COc1ccc([C@H]2c3ccccc3[C@@H](c3ccc(NC(C)=O)cc3)[C@H]2C(=O)O)cc1` (racemic) [Example 23, (1RS, 2RS, 3SR)-1-(4-Acetamidophenyl)-3-(4-methoxyphenyl)indane-2-carboxylic acid]: 231 to 232 °C.
For `COc1cc(OC)c([C@H]2c3ccc(O)cc3[C@@H](c3ccc4c(c3)OCO4)[C@@H]2C(=O)O)c(OC)c1` (racemic) [Example 78, (1RS, 2SR, 3RS)-5-Hydroxy-3-(3,4-methylenedioxyphenyl)-1-(2,4,6-trimethoxyphenyl)indane-2-carboxylic acid], the melting point is 225 to 226 °C.
Next, `CCOc1ccc([C@@H]2c3ccccc3[C@H](c3ccc4c(c3)OCO4)[C@H]2C(=O)O)cc1` (racemic) [Example 73, (1RS, 2SR, 3SR)-1-(4-Ethoxyphenyl)-3-(3,4-methylenedioxyphenyl)indane-2-carboxylic acid]: 169 to 170 °C; `CCCOc1ccc2c(c1)[C@H](c1ccc(OC(C)C)cc1OCC(=O)O)[C@H](C(=O)O)[C@@H]2c1ccc2c(c1)OCO2` (racemic) [Example 95, (1RS, 2RS, 3RS)-3-(2-Carboxymethoxy-4-isopropyloxyphenyl)-1-(3,4-methylenedioxyphenyl)-5-(prop-1-yloxy)indane-2-carboxylic acid]: 183 to 185 °C.
The figure for `CCCOc1ccc2c(c1)[C@H](c1ccc(OC)cc1OCOC)[C@@H](C(=O)O)[C@@H]2c1ccc2c(c1)OCO2` (racemic) [Example 31, (1RS, 2SR, 3RS)-3-(4-methoxy-2-methoxymethoxyphenyl)1-(3,4-methylenedioxyphenyl)-5-(prop-1-yloxy)indane-2-carboxylic acid] is 161 to 163 °C.
The figure for `COc1ccc([C@@H]2c3ccccc3[C@H](c3ccccc3)[C@H]2C(=O)O)cc1` (racemic) [Example 1, (1RS,2RS,3SR)-1-(4-Methoxyphenyl)-3-phenylindane-2-carboxylic acid] is 164 to 166 °C; for `COc1ccc(C2C(C(=O)O)=C(c3ccccc3)c3ccccc32)cc1` (racemic) [Example 15, (1RS)-1-(4-Methoxyphenyl)-3-phenylindene-2-carboxylic acid] it is 191 to 193 °C.
In turn, `O=C(O)C1[C@H](c2ccc3c(c2)OCO3)c2ccccc2[C@H]1c1ccc2c(c1)OCO2` (racemic) [Example 6, (1RS, 3RS)-1,3-Di-(3,4-methylenedioxyphenyl)-indane-2-carboxylic acid] yielded a melting point of 182 to 185 °C.
Regarding `CCCOc1ccc2c(c1)[C@H](c1ccccc1OCC(=O)O)[C@@H](C(=O)O)[C@@H]2c1ccc2c(c1)OCO2` (racemic) [Example 37, (1 RS, 2SR, 3RS)-3-(2-Carboxymethoxyphenyl)-1-(3,4-methylenedioxyphenyl)-5-(prop-1-yloxy)indane-2-carboxylic acid], the melting point lay in the range of 169 to 170 °C.
The figure for `CCCOc1ccc2c(c1)[C@H](c1ccc(OC)cc1-c1ccccc1)[C@@H](C(=O)O)[C@@H]2c1ccc2c(c1)OCO2` (racemic) [Example 56, (1RS, 2SR, 3RS)-3-(4-Methoxy-2-phenylphenyl)-1-(3,4-methylenedioxyphenyl)-5-(prop-1-yloxy)indane-2-carboxylic acid] is 199 to 200 °C; for `COc1ccc([C@H]2c3ccccc3[C@@H](c3ccc(OC)c(OC)c3)[C@@H]2C(=O)O)cc1` (racemic) [Example 26, (1RS, 2RS, 3SR)-1-(3,4-Dimethoxyphenyl)-3-(4-methoxyphenyl)indane-2-carboxylic acid] it is 126 to 128 °C; for `CCCOc1ccc2c(c1)[C@H](c1ccc(OC)cc1Oc1ncccc1C(=O)O)[C@@H](C(=O)O)[C@@H]2c1ccc2c(c1)OCO2` (racemic) [Example 98, (1RS, 2SR, 3RS)-3-[2-[(3-Carboxypyridin-2-yl)oxy]-4-methoxyphenyl]-1-(3,4-methylenedioxyphenyl)-5-(prop-1-yloxy) indane-2-carboxylic acid] it is 152 to 155 °C.
Next, `CCCOc1ccc2c(c1)[C@H](c1ccc(OC)cc1OCC(=O)[O-])[C@@H](C(=O)O[C@@H](C)OC(=O)C(C)(C)OC)[C@@H]2c1ccc2c(c1)OCO2.[Na+]` (racemic): 178 to 181 °C (dec.); `COc1cccc([C@@H]2c3ccccc3[C@H](c3ccc4c(c3)OCO4)[C@H]2C(=O)O)c1` (racemic) [Example 5, (1RS, 2SR, 3SR)-1-(3-Methoxyphenyl)-3-(3,4-methylenedioxyphenyl)indane-2-carboxylic acid]: 131 to 133 °C; `CCCOc1ccc2c(c1)[C@H](c1ccccc1OCCC)[C@@H](C(=O)O)[C@@H]2c1ccc2c(c1)OCO2` (racemic) [Example 35, (1RS, 2SR, 3RS)-1-(3,4-Methylenedioxyphenyl)-3-[2-(prop-1-yloxy)phenyl]-5-(prop-1-yloxy)indane-2-carboxylic acid]: 179 to 180 °C.
Next, `C=CCCOc1ccc2c(c1)[C@@H](c1ccc(OC)cc1)[C@H](C(=O)O)[C@@H]2c1ccc2c(c1)OCO2` (racemic) [Example 106, (1RS, 2SR, 3RS)-5-(3-Buten-1-yloxy)-3-(4-methoxyphenyl)-1-(3,4-methylenedioxyphenyl)indane-2-carboxylic acid]: 127 to 129 °C; `CCc1ccc([C@@H]2c3ccccc3[C@H](c3ccccc3)[C@H]2C(=O)O)cc1` (racemic) [Example 20, (1RS, 2RS, 3SR)-1-(4-Ethylphenyl)-3-phenylindane-2-carboxylic acid]: 163 to 164 °C; `COc1ccc([C@@H]2c3cc(OC)ccc3[C@@H](c3ccc4c(c3)OC(OC)O4)[C@H]2C(=O)O)cc1` (mixture of isomers) [Example 84, (1RS, 2SR, 3RS)-5-Methoxy-3-(4-methoxyphenyl)-1-(2-methoxy4,5-methylenedioxyphenyl)indane-2-carboxylic acid]: 149 to 150 °C.
`COc1ccc([C@H]2c3cc(O)ccc3[C@@H](c3ccc4c(c3)OCO4)[C@@H]2C(=O)O)c(OC)c1` (racemic) [Example 76, (1RS, 2SR, 3RS)-3-(2,4-Dimethoxyphenyl)-5-hydroxy-1-(3,4-methylenedioxyphenyl)indane-2-carboxylic acid]: the melting point lay within 110 to 113 °C.
The compound `C=CCOc1cc(OC)ccc1[C@H]1c2cc(OCCC)ccc2[C@@H](c2ccc3c(c2)OCO3)[C@@H]1C(=O)O` (racemic) [Example 100, (1RS, 2SR, 3RS)-1-(3,4-Methylenedioxyphenyl)-3-[4methoxy-2-(2-propen-1-yloxy)phenyl]-5-(prop-1-yloxy)indane-2-carboxylic acid] came in with a melting point of 168 to 170 °C.
Next, `O=C(O)[C@H]1[C@H](c2ccc3c(c2)OCO3)c2ccc(O)cc2[C@@H]1c1ccc(OC(F)(F)F)cc1` (racemic) [Example 108, (1RS, 2RS, 3SR)-5-Hydroxy-1-(3,4-methylenedioxyphenyl)-3-(4-trifluoromethoxyphenyl)indane-2-carboxylic acid]: 100 to 104 °C.
For `CCCOc1cccc2c1[C@@H](c1ccc3c(c1)OCO3)[C@@H](C(=O)O)[C@H]2c1ccc(OC)cc1OCC(=O)O` (racemic) [Example 91, (1RS, 2RS, 3RS)-1-(2-Carboxymethoxy-4-methoxyphenyl]-3-(3,4-methylenedioxyphenyl)-4-(prop-1-yloxy)indane-2-carboxylic acid], the melting point was 201 to 206 °C.
`CCCOc1ccc2c(c1)[C@H](c1ccc(OC)cc1CCC)[C@@H](C(=O)O)[C@@H]2c1ccc2c(c1)OCO2` (racemic) [Example 61, (1RS, 2SR, 3SR)-3-[4-Methoxy-2-(prop-1-yl)phenyl]-1-(3,4-methylenedioxyphenyl)-5-(prop-1-yloxy)indane-2-carboxylic acid] returned a melting point of 155 to 156 °C.
The figure for `COc1ccc([C@@H]2c3cc(OC)ccc3[C@H](c3ccc4c(c3OC)OCO4)[C@H]2C(=O)O)cc1` (racemic) [Example 93, (1RS, 2SR, 3RS)-5-Methoxy-1-(2-methoxy-3,4-methylenedioxyphenyl)-3-(4-methoxyphenyl)indane-2-carboxylic acid] is 148 to 149 °C; for `CCCOc1ccc2c(c1)[C@H](c1ccccc1O)[C@@H](C(=O)O)[C@@H]2c1ccc2c(c1)OCO2` (racemic) [Example 36, (1RS, 2SR, 3RS)-3-(2-Hydroxyphenyl)-1-(3,4-methylenedioxyphenyl)-5-(prop-1-yloxy)indane-2-carboxylic acid] it is 97 to 98 °C.
